Measurements from ChEMBL document CHEMBL3132769, “Fragment growing to retain or alter the selectivity of anchored kinase hinge-binding fragments” (Medchemcomm, 2014).

What was measured:
[1] = target: Serine/threonine-protein kinase MARK1 (Homo sapiens) (UniProt Q9P0L2); assay: Inhibition of human full length MARK1 expressed in baculovirus assessed as substrate phosphorylation using fluorescence-labelled peptides as substrate at 8 uM after 90 mins by microfluidic peptide phosphorylation assay
[2] = target: Fibroblast growth factor receptor 2 (Homo sapiens) (UniProt P21802); assay: Inhibition of human FGFR2 catalytic domain expressed in baculovirus assessed as substrate phosphorylation using fluorescence-labelled peptides as substrate at 8 uM after 90 mins by microfluidic peptide phosphorylation assay
[3] = organism: Homo sapiens; assay: Inhibition of human full length PKA expressed in baculovirus assessed as substrate phosphorylation using fluorescence-labelled peptides as substrate at 8 uM after 90 mins by microfluidic peptide phosphorylation assay
[4] = target: T1, Serine/threonine-protein kinase BRSK2 (Homo sapiens) (UniProt Q8IWQ3); assay: Inhibition of human truncated BRSK2 expressed in baculovirus assessed as substrate phosphorylation using fluorescence-labelled peptides as substrate at 0.06 uM after 90 mins by microfluidic peptide phosphorylation assay
T1 sequence (whole entry): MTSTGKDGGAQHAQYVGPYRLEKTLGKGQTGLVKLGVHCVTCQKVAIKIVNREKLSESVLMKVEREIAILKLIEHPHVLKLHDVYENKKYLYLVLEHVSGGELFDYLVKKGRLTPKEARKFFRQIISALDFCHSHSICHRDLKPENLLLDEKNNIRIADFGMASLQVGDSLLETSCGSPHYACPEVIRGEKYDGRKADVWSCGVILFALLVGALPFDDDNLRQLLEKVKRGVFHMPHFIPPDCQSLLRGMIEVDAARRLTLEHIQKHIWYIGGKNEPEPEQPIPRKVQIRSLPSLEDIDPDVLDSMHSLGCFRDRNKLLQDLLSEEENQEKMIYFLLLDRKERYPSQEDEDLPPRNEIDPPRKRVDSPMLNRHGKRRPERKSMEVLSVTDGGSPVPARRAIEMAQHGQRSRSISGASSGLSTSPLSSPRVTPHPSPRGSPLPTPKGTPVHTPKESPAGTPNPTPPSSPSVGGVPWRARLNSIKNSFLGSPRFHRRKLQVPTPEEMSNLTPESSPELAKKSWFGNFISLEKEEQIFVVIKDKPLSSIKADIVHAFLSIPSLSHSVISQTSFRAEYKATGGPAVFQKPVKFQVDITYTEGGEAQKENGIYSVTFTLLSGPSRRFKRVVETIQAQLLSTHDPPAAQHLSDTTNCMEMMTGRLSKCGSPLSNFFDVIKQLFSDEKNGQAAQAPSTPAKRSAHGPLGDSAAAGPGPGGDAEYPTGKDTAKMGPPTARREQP

[5] = target: Mitogen-activated protein kinase 3 (Homo sapiens) (UniProt P27361); assay: Inhibition of human full length ERK1 expressed in Escherichia coli cell assessed as substrate phosphorylation using fluorescence-labelled peptides as substrate at 0.06 uM after 90 mins by microfluidic peptide phosphorylation assay
[6] = target: Receptor-type tyrosine-protein kinase FLT3 (Homo sapiens) (UniProt P36888); assay: Inhibition of human FLT3 catalytic domain expressed in baculovirus assessed as substrate phosphorylation using fluorescence-labelled peptides as substrate at 9 uM after 90 mins by microfluidic peptide phosphorylation assay
[7] = target: T2, Serine/threonine-protein kinase BRSK1 (Homo sapiens) (UniProt Q8TDC3); assay: Inhibition of human full length BRSK1 expressed in baculovirus assessed as substrate phosphorylation using fluorescence-labelled peptides as substrate at 95 uM after 90 mins by microfluidic peptide phosphorylation assay
T2 sequence (whole entry): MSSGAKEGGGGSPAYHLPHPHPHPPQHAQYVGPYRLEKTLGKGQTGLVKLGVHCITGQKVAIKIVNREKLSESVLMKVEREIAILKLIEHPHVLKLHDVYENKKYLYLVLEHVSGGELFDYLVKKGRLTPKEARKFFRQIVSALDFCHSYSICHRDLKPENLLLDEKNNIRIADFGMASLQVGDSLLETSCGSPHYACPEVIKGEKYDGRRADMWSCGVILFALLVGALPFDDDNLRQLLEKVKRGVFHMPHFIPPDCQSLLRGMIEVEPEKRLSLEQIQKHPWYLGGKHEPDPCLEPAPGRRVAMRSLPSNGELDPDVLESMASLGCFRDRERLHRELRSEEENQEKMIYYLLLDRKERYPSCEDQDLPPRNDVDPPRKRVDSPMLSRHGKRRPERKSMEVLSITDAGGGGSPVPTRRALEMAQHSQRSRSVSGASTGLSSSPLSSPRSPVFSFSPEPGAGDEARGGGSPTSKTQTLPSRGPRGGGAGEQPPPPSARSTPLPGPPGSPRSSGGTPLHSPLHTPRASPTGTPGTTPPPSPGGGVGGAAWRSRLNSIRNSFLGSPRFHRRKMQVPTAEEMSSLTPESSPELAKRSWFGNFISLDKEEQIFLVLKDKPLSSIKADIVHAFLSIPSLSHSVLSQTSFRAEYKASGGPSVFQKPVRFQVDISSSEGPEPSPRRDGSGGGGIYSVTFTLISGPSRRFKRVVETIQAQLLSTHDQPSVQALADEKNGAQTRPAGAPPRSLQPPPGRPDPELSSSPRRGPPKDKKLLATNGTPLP

[8] = target: T3, Calcium/calmodulin-dependent protein kinase type IV (Homo sapiens) (UniProt Q16566); assay: Inhibition of human full length CAMK4 expressed in baculovirus assessed as substrate phosphorylation using fluorescence-labelled peptides as substrate at 95 uM after 90 mins by microfluidic peptide phosphorylation assay
T3 sequence (whole entry): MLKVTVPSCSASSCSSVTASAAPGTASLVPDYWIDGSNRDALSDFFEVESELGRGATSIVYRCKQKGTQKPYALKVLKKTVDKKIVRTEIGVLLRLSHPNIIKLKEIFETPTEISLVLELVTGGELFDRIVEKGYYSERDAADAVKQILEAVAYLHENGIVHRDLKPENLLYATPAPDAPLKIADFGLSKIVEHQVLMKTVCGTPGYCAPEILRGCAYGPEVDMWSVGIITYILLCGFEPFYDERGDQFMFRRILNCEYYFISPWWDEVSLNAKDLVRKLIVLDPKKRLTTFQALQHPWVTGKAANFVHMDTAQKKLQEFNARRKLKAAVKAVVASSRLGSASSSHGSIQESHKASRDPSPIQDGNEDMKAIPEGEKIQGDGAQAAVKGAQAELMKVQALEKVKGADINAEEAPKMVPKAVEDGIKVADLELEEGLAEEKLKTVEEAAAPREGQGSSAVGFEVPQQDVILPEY

[9] = target: T1, Serine/threonine-protein kinase BRSK2 (Homo sapiens); assay: Inhibition of human truncated BRSK2 expressed in baculovirus assessed as substrate phosphorylation using fluorescence-labelled peptides as substrate at 95 uM after 90 mins by microfluidic peptide phosphorylation assay
[10] = target: Casein kinase I isoform delta (Homo sapiens) (UniProt P48730); assay: Inhibition of human CK1D catalytic domain expressed in Escherichia coli cell assessed as substrate phosphorylation using fluorescence-labelled peptides as substrate at 70 uM after 90 mins by microfluidic peptide phosphorylation assay
[11] = tested on: Tyrosine-protein kinase ABL1 (Homo sapiens), P00519 [Q252H]; assay: Inhibition of human truncated ABL Q252H mutant expressed in baculovirus assessed as substrate phosphorylation using fluorescence-labelled peptides as substrate at 70 uM after 90 mins by microfluidic peptide phosphorylation assay

Serine/threonine-protein kinase MARK1 (Homo sapiens), sequence (Q9P0L2 whole entry, looked up, the tested form may be a part): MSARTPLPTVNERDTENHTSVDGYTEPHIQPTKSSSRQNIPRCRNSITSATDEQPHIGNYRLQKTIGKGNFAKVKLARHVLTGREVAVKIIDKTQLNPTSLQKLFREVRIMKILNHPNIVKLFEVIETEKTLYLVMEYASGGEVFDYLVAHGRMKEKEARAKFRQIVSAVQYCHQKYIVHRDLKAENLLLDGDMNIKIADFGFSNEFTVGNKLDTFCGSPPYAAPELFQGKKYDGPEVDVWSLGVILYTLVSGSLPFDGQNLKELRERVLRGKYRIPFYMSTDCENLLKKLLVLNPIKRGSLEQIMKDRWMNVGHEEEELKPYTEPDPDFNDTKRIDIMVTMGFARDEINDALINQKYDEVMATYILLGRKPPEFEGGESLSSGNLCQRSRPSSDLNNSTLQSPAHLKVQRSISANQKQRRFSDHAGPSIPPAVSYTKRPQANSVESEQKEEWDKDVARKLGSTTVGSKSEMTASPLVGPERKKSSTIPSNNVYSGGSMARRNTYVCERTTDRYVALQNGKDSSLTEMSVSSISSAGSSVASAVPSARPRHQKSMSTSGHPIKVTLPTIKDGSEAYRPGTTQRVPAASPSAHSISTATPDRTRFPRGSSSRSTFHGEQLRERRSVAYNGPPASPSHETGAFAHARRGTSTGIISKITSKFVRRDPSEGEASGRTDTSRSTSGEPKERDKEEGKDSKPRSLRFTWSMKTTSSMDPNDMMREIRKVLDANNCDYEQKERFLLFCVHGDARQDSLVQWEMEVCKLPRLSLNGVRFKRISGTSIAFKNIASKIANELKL
Mitogen-activated protein kinase 3 (Homo sapiens), sequence (P27361 whole entry, the tested form may be a part): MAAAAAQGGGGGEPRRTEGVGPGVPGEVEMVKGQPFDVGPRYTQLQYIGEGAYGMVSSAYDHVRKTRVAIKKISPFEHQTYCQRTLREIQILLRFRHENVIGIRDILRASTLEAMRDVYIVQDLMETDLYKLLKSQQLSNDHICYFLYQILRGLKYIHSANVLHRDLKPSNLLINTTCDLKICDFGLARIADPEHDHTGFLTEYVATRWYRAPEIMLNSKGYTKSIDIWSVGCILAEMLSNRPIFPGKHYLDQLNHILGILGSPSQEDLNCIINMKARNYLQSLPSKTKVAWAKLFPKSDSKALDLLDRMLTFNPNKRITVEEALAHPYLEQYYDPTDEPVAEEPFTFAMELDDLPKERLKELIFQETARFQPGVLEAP
Casein kinase I isoform delta (Homo sapiens), sequence (P48730 whole entry, looked up, the tested form may be a part, canonical isoform): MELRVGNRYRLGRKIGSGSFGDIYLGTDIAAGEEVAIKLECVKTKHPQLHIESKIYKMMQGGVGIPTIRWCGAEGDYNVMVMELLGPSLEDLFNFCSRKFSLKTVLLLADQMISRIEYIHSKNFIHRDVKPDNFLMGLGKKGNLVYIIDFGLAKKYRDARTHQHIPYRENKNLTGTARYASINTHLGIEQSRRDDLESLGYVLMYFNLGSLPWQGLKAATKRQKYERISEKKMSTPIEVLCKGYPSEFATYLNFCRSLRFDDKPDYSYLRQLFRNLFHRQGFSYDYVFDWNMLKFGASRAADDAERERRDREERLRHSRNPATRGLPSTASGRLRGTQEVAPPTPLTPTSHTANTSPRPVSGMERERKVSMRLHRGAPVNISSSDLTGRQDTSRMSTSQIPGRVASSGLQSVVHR
Receptor-type tyrosine-protein kinase FLT3 (Homo sapiens), sequence (P36888 whole entry, the tested form may be a part): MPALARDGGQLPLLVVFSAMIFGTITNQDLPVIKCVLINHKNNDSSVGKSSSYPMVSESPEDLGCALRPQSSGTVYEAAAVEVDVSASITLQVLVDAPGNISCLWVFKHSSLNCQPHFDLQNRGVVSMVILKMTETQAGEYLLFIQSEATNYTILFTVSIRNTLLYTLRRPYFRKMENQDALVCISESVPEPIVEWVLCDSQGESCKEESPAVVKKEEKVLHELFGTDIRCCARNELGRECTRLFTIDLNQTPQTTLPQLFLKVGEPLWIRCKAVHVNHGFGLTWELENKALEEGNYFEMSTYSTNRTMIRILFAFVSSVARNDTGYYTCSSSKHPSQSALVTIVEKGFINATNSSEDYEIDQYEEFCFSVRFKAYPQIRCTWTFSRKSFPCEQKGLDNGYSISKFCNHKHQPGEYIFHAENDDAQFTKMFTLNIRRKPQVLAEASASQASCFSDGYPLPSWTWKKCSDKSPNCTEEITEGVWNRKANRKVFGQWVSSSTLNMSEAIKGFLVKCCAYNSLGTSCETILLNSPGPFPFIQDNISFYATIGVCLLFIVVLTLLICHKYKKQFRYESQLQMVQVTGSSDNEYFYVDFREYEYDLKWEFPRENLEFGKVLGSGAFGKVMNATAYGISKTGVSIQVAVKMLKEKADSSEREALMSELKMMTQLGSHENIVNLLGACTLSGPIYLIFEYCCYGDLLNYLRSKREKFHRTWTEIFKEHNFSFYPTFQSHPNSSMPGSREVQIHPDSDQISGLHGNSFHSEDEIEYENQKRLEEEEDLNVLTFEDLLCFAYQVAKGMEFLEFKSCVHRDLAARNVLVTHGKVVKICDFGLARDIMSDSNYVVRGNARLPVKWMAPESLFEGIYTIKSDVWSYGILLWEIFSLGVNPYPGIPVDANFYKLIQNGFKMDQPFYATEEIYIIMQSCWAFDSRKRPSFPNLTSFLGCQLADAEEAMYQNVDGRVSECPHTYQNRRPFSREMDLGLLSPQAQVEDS
Fibroblast growth factor receptor 2 (Homo sapiens), sequence (P21802 22-821 limits assumed): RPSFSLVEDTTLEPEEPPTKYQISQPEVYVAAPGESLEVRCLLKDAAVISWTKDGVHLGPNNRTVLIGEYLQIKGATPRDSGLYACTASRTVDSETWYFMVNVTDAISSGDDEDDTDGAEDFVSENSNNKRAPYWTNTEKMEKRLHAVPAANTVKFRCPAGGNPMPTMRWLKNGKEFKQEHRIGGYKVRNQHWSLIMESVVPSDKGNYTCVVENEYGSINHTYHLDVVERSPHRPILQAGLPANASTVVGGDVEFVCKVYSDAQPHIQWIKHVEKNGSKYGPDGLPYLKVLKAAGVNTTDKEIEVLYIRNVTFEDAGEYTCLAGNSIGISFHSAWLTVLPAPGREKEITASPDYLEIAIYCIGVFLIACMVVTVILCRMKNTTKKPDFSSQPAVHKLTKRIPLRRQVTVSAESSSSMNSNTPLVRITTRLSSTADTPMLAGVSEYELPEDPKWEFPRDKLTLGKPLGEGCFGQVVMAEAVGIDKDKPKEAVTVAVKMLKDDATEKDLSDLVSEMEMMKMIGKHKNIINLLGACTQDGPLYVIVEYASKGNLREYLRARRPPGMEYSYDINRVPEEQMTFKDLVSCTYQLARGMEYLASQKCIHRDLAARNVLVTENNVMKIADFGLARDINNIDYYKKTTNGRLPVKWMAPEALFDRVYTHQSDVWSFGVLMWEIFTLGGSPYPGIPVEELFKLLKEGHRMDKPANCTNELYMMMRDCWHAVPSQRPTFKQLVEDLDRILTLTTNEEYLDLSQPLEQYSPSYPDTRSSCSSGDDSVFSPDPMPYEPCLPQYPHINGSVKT

NCC1CCN(c2ncnc3[nH]ccc23)CC1
inhibition [1]: 74% | inhibition [2]: 29.5% | inhibition [3]: 29.5%

NC1(Cc2ccc(Cl)cc2)CCN(c2ncnc3[nH]ccc23)CC1
inhibition [4]: 0% | inhibition [5]: 0%

NCC1CN(c2ncnc3[nH]c4cnccc4c23)CCO1 (stereo unspecified)
inhibition [6]: 89.5%

NCCc1ccc(-c2ncnc3[nH]cnc23)cc1
inhibition [7]: 44% | inhibition [8]: 85% | inhibition [9]: 40%

CNCc1ccc(-c2ncnc3[nH]cnc23)cc1
inhibition [10]: 46% | inhibition [11]: 39%
